{
  "source": "patent US7625887B2",
  "about": "“Receptor agonists” (Takeda Pharmaceutical Company Limited, priority 2003, dated 2009)",
  "key": {"[1]": {"system": "guinea pig intestine primary culture cells", "assay": "GLP-1 secretion from guinea pig intestine primary culture cells", "format": "cell-based", "settings": "test compound 10 μM, 90 min", "procedure": "Colon mucous membrane of guinea pig (Hartley, male, Charles River Japan, Inc.) was removed and subjected to an enzyme treatment to give a cell dispersion according to the following method.\nThe enzyme solution used was obtained by dissolving 5 mg/ml Collagenase (Sigma), 5 mg/ml Hyaluronidase (Sigma) and 0.5 mg/ml DNaseI (Sigma) in a medium. The medium used was Dulbecco's Modified Eagle Medium (DMEM, Invitrogen) supplemented with 4.5 g/l Glucose, 5% FBS (Invitrogen), 100 units/ml Penicillin (Invitrogen), 100 μg/ml Streptomycin (Invitrogen), 50 μg/ml Gentamicin (Invitrogen) and 20 mM Hepes (pH 7.3). After digestion by the enzyme solution at 37° C., the tissue sections were prepared into dispersed cells by passing through a pipette 4 times and the cells were collected. The collected cells were washed with a buffer (incubation buffer) obtained by adding 5.5 mM Glucose and 0.1% BSA to a modified Krebs-Ringer bicarbonate buffer (KRBH, 116 mM NaCl, 4.7 mM KCl, 1.2 mM KH2PO4, 1.2 MM MgSO4, 2.5 mM CaCl2, 25 mM NaHCO3, 24 mM HEPES, pH 7.3), and preincubated at 37° C. under 5% CO2 for 30 min. 0.1 μM Phorbol ester (Wako), 1% DPPIV inhibitor (Linco) and a test compound were added to the above-mentioned incubation buffer, and the obtained buffer was added to the cells after the aforementioned preincubation and incubated for 90 min. The culture supernatant was collected and cryopreserved. The concentration of GLP-1 released in the culture supernatant was measured using an ELISA kit (Linco)."}, "NCI-H716 cells [2]": {"system": "NCI-H716 cells", "assay": "intracellular cAMP production increasing action in NCI-H716 cells", "format": "cell-based, human", "settings": "10 μM, 2 hrs; production amount in TLCA (50 μM) was 100%; Base 11", "procedure": "NCI-H716 (ATCC) was suspended in a medium (Dulbecco's Modified Eagle Medium (DMEM, Invitrogen) supplemented with 10% fetal bovine serum (Invitrogen), 100 U/ml penicillin and 100 μg/ml streptomycin), seeded in a 96 well plate, cultured for 2 days and used for cAMP production assay. As a cAMP assay buffer, modified Krebs-Ringer bicarbonate buffer (KRBH, 116 mM NaCl, 4.7 mM KCl, 1.2 mM KH2PO4, 1.2 MM MgSO4, 2.5 mM CaCl2, 25 mM NaHCO3, 24 mM HEPES pH 7.3), supplemented with glucose 5.5 mM, bovine serum albumin (BSA) 0.1%, and 3-isobutyl-1-methylxanthine (IBMX, Sigma) 1 mM, was used. The cells were washed once with cAMP assay buffer. Bile acids (50 μM) diluted with cAMP assay buffer or the compounds of the present invention (10 μM) were added thereto and the cells were incubated for 2 hrs. The culture supernatant was discarded, and the cAMP production amount was measured by cAMP Screen System (ABI). In the Table, Base means non-addition of a test compound."}, "[3]": {"system": "guinea pig peripheral blood mononuclear cells", "assay": "IL-6 secretion in LPS-stimulated guinea pig peripheral blood mononuclear cells", "format": "cell-based", "settings": "16 hrs, test compound 10 μM; non-addition: 520 with LPS, 32 without", "procedure": "(§1) The peripheral blood was taken from guinea pig, and mononuclear cell fraction was obtained by a density separation method using Ficoll-Paque PLUS (Amersham Pharmacia). The fraction at a concentration of 1×10^5/well was cultured for 16 hrs in the presence of […] LPS in a 96-well plate upon addition of bile acid or a test compound. The culture supernatant was collected and TNF and IL-6 in the supernatant were quantitated.\nThe quantitation of IL-6 in the culture supernatant was performed using IL-6 dependent cell line 7TD1 (RIKEN Institute) with its growth promoting action as an index. First, 7TD1 cells were suspended in a basic medium (RPMI1640 (Invitrogen) supplemented with 1% non-essential amino acid (Invitrogen) and 55 μM 2-mercaptoethanol (Invitrogen)) and seeded in a 96-well plate at a concentration of 2×10^3/well. Immediately after seeding, peripheral blood mononuclear cell culture supernatant diluted with a dilution medium (the above-mentioned basic medium supplemented with 10% FBS) was added and the cells were cultured for 2 days. The IL-6 content was determined by measuring the growth of the 7TD1 cells in the obtained culture product using a CellTiter-Glo (Promega). As the standard sample, human recombinant IL-6 (Genzyme) was used."}, "human TGR5": {"target": "T1, human TGR5 (Homo sapiens, UniProt Q8TDU6)", "T1 construct": "expressed in transfected cells; host or cells: CHO cells", "T1 sequence (Q8TDU6 1-330)": "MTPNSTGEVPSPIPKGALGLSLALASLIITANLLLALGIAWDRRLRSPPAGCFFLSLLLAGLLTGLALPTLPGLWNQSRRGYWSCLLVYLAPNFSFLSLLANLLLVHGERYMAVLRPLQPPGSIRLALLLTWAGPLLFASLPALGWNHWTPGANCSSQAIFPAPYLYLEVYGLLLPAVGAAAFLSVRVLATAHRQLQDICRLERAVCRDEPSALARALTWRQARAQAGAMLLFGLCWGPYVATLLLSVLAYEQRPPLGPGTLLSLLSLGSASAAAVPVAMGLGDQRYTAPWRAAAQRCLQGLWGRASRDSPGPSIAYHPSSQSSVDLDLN", "assay": "cAMP production increasing activity in human TGR5 expressing CHO cells", "format": "cell-based", "settings": "read-out: EC50 value (concentration necessary to make the cAMP production amount 50%)"}, "[4]": {"system": "guinea pig peripheral blood mononuclear cells", "assay": "TNF secretion in LPS-stimulated guinea pig peripheral blood mononuclear cells", "format": "cell-based", "settings": "16 hrs, test compound 10 μM; non-addition: 160 with LPS, 13 without", "procedure": "as §1\nThe TNF secretion amount in the culture supernatant was measured in the same manner as in Experimental Example 7."}, "NCI-H716 cells [5]": {"system": "NCI-H716 cells", "assay": "GLP-1 secretion from NCI-H716 cell line", "format": "cell-based, human", "settings": "5 μM, 2 hrs; secretion amount in Base was 100%", "procedure": "NCI-H716 cells secrete Glucagon-like peptide-1 (GLP-1). GLP-1 is a peptide useful for controlling blood glucose level because it acts on the pancreas to cause secretion of insulin and the like. In the same manner as in Experimental Example 9, NCI-H716 (ATCC) was seeded in a 96 well plate and, after incubation for 2 days, used for the following secretion test. As a buffer for secretion test, modified Krebs-Ringer bicarbonate buffer (KRBH, 116 mM NaCl, 4.7 mM KCl, 1.2 mM KH2PO4, 1.2 mM MgSO4, 2.5 mM CaCl2, 25 mM NaHCO3, 24 mM HEPES, pH 7.3) supplemented with glucose 5.5 mM and BSA 0.1% was used. The cells were washed once with the buffer for secretion test, preincubated at 37° C. under 5% CO2, bile acid diluted with the buffer for secretion test was added and the cells were cultured at 37° C. under 5% CO2 for 2 hrs. The cell culture supernatant was collected, cryopreserved and the GLP-1 content in the supernatant was measured using a GLP-1 measurement EIA kit (Linco) The results are shown in Table 9. In the Table, Base means non-addition of a test compound."}, "guinea pig TGR5": {"system": "guinea pig TGR5", "assay": "cAMP production increasing activity in guinea pig TGR5 expressing CHO cells", "format": "cell-based", "settings": "test compound 2 μM; 10 μM lithocholic acid = 100%; average of 3 groups"}},
  "data": [
    {"smiles": "CC(=O)NCc1cccc(C2OC(CC(=O)NCc3ccccc3C(F)(F)F)C(=O)N(CC(C)(C)C)c3ccc(Cl)cc32)c1", "note": "(stereo not drawn) [Example 14, 2-[3,5-trans-5-[3-(acetylaminomethyl)phenyl]-7-chloro-1-neopentyl-2-oxo-1,2,3,5-tetrahydro-4,1-benzoxazepin-3-yl]-N-[2-(trifluoromethyl)benzyl]acetamide]", "values": [
      {"measurement": "GLP-1 (% relative to non-addition)", "setting": "[1]", "value": "167 % relative to non-addition"},
      {"measurement": "cAMP production increasing activity (%)", "setting": "NCI-H716 cells [2]", "value": 104, "unit": "%"},
      {"measurement": "IL-6", "setting": "[3]", "value": 260, "unit": "pg/mL"},
      {"measurement": "EC50", "setting": "human TGR5", "value": "< 100", "unit": "nM"},
      {"measurement": "TNF α", "setting": "[4]", "value": 83, "unit": "pg/mL"},
      {"measurement": "GLP-1 secretion increase (%)", "setting": "NCI-H716 cells [5]", "value": 157, "unit": "%"},
      {"measurement": "cAMP producing activity (control %)", "setting": "guinea pig TGR5", "value": 76, "unit": "control %"}
    ]},
    {"smiles": "O=S(=O)(c1cc(C(F)(F)F)cc(C(F)(F)F)c1)N1CCOc2nccc(-c3ccccc3)c2C1", "note": "[Example 22C, 4-{[3,5-bis(trifluoromethyl)phenyl]sulfonyl}-6-phenyl-2,3,4,5-tetrahydropyrido[3,2-f][1,4]oxazepine]", "values": [
      {"measurement": "GLP-1 (% relative to non-addition)", "setting": "[1]", "value": "313 % relative to non-addition"},
      {"measurement": "cAMP production increasing activity (%)", "setting": "NCI-H716 cells [2]", "value": 100, "unit": "%"},
      {"measurement": "IL-6", "setting": "[3]", "value": 170, "unit": "pg/mL"},
      {"measurement": "TNF α", "setting": "[4]", "value": 66, "unit": "pg/mL"},
      {"measurement": "GLP-1 secretion increase (%)", "setting": "NCI-H716 cells [5]", "value": 127, "unit": "%"},
      {"measurement": "cAMP producing activity (control %)", "setting": "guinea pig TGR5", "value": 101, "unit": "control %"}
    ]}
  ]
}
